Patent US20110092440A1, “METHOD OF REGULATING CELL GROWTH USING A PROTEASOME INHIBITOR” (THE BOARD OF TRUSTEES OF THE UNIVERSITY OF ILLINOIS, priority 2008, published 2011)
Non-standard residues stand in square brackets, D forms with d. Residues, ends and D or L forms follow the SMILES beside them. *: point of attachment. Nva = CCC[C@H](N)C(=O)O; Cbz = O=C(OCc1ccccc1)*; OtBu = CC(C)(C)O*

Experiments:
[1] = test system: FoxM1 transcriptional activity; conditions: previously reported (US 2008/0152618; Radhakrishnan et al., 2006); cited from earlier work
BxPC3 cells = experiment: Apoptosis induction by Siomycin A alone, BxPC3; type: cell-based, human; conditions: data not shown
MDAMB231 cells = experiment: Apoptosis induction by Siomycin A alone, MDAMB231; type: cell-based, human; conditions: data not shown
HPAC cells = experiment: Apoptosis induction by Siomycin A alone, HPAC; type: cell-based, human; conditions: data not shown
Mia Paca cells = experiment: Apoptosis induction by Siomycin A alone, Mia Paca; type: cell-based, human; conditions: data not shown
[2] = test system: Hdm2, p53, Mcl-1 and p21 protein levels in U2OS cells; experiment: Immunoblot analysis of Hdm2, p53, Mcl-1 and p21 protein levels in U2OS cells; type: cell-based, human; conditions: FIG. 1A
Excerpt: The effects of Siomycin A on the protein levels of these genes in the cells were compared with those of a proteasome inhibitor MG132.

20S proteasome = biological target: T1, 20S proteasome (Homo sapiens, UniProt P28074); experiment: 20S Proteasome Activity Assay Kit (LLVY-AMC cleavage); type: biochemical; conditions: 25 μM, 15 minutes pre-incubation, 1 hour at 37° C., FIG. 1C
T1 construct: Millipore
Procedure: The effects of Siomycin A and thiostrepton on the 20S proteasome were compared with proteasome inhibitors MG132 and lactacystin using the Proteasome Activity Assay Kit following the manufacturer's instructions (Millipore). […] Proteasome samples were prepared according to the manufacturer's instructions. […] Samples were incubated for 1 hour at 37° C. and the fluorescence derived from the cleaved AMC was detected and quantified using a 380/460 nm filter in a fluorometer (Spectra Max GeminiXS, Molecular Devices, Sunnyvale, Calif.).

[3] = test system: NF-κB transcriptional activity; experiment: TNF-α-induced NF-κB-dependent luciferase assay in 293T-NF-κB-Luc cells; type: cell-based; conditions: 10 ng/mL TNF-α 24 hours, then compound 10 hours, FIG. 1B
Procedure: Proteasome inhibitors were known to inhibit the activity of NF-κB via the stabilization of its negative regulator IκB-α (Nakanishi et al., 2005, Nat Rev Cancer 5:297-309; Nencioni et al., 2007). The effects of Siomycin A and thiostrepton on NF-κB-dependent transcriptional activity were tested. 293T cells stably transfected with an NF-κB-Luc reporter construct (293T-NF-κB-Luc) were induced with 10 ng/mL TNF-αfor 24 hours. The next day, the cells were treated with Siomycin A or thiostrepton for an additional 10 hours, and followed by luciferase assay. The luciferase activity was determined by using the Luciferase Assay System (Promega, Madison, Wis.) according to the manufacturer's instructions. The data were normalized based on the amount of proteins in the samples.

[4] = test system: FoxM1 transcriptional activity; experiment: FoxM1-dependent luciferase assay in U2OS-C3-Luc cells; type: cell-based, human; conditions: 1 μg/ml doxycycline, 24 hours, FIG. 2A
Procedure: The effects of proteasome inhibitors on FoxM1 transcriptional activity were tested by examining FoxM1-dependent luciferase activity in a luciferase assay. It was previously reported that thiazole antibiotics inhibited FoxM1-dependent transcriptional activity by measuring the reduction of luciferase activity in a U2OS-derived cell line stably expressing doxycycline-inducible FoxM1 and FoxM1-dependent luciferase (the U2OS-C3-Luc cell line). See U.S. Patent Application Publication No. 2008/0152618; Radhakrishnan et al. 2006; and Bhat et al., 2009. The same cell line was used in this experiment. U2OS-C3-Luc cells were treated with a combination of 1 μg/ml doxycycline and proteasome inhibitors at indicated concentrations for 24 hours, and the luciferase activity was measured. The luciferase activity was determined by using either the Luciferase Assay System (Promega, Madison, Wis.) or the Dual-Luciferase reporter assay system (Promega) according to the manufacturer's instructions.
The results shown in FIG. 2A (1) were normalized by the amount of proteins in the sample; and the results shown in FIG. 2A (2) were normalized using the Dual-luciferase reporter assay system (Promega).

FoxM1 protein = experiment: Immunoblot analysis of FoxM1 protein levels in tumor cells; type: cell-based, human; conditions: U266, RPMI8226, HL-60 and U2OS cells, 24 hours, FIG. 2B
Procedure: The effects of proteasome inhibitors on FoxM1 protein expression were also examined. U266 and RPMI8226, both multiple myeloma cells, HL-60 leukemia cells and human U2OS osteosarcoma cells were treated with proteasome inhibitors MG115, MG132 and VELCADE® for 24 hours. Cell lysates were harvested and the FoxM1 protein levels were analyzed by immunoblot analysis. […] See also U.S. Patent Application Publication No. 2008/0152618.

[5] = test system: U266 and RPMI8226 multiple myeloma, HL-60 leukemia and U2OS osteosarcoma cells; experiment: Annexin V-PE/7AAD staining, FACS analysis of apoptosis; type: cell-based, human; conditions: U266, RPMI8226, HL-60 and U2OS cells, FIG. 3
Procedure: Proteasorne inhibitor-induced apoptosis was further quantified by using Annexin V-PE/7AAD staining. U266 and RPMI8226 multiple myeloma, HL-60 leukemia and U2OS osteosarcoma cells were cultured in the presence of proteasome inhibitors MG115, MG132 and VELCADE®. Following proteasome inhibitor treatment (or DMSO in the control), cells were stained with Annexin V-PE/7AAD (BD-Pharmingen, Franklin Lakes, N.J.) and then analyzed by Fluorescence-activated Cell Sorting (FACS). […] The concentrations of proteasome inhibitors used in the experiments shown in FIG. 3 were the same as those in FIG. 2. The percentages of apoptotic cells were shown in the parentheses in FIG. 3. The induction of apoptosis correlated with the suppression of FoxM1 (see FIG. 3 and FIG. 2B).

[6] = test system: Prostate cancer DU145 and PC3 cells; type: cell-based; conditions: data not shown
U2OS-C3 cells = experiment: Active caspase 3 immunoblot in U2OS-C3 cells with doxycycline-induced FoxM1 over-expression; type: cell-based, human; conditions: compound 24 hours, FIG. 4
Procedure: Over-expression of FoxM1 was often observed in a variety of tumors. See Pilarsky et al., 2004, Neoplasia 6(6):744-750; Chan et al., 2008, J Pathol 215(3):245-252. A U2OS-derived cell line stably expressing doxycycline-inducible FoxM1-GFP fusion protein (U2OS-C3) was used to examine the role of FoxM1 in apoptosis induced by proteasome inhibitors. Exogenous FoxM1 expression was induced by doxycycline and the following day the cells were treated with different concentrations of VELCADE® for 24 hours.

[7] = toxicity studies, Aghajanian et al., 2002; cited from earlier work

| SMILES | proteolytic activity of the 20S proteasome (free AMC) (20S proteasome) | FoxM1 transcriptional activity (luciferase) [4] | levels of FoxM1 protein (FoxM1 protein) | induction of apoptosis (Annexin V-PE/7AAD) [5] | also measured |
| --- | --- | --- | --- | --- | --- |
| C=C(NC(=O)C(=C)NC(=O)c1csc(C2=N[C@@H]3c4csc(n4)[C@H]4NC(=O)c5csc(n5)[C@H]([C@](C)(O)[C@@H](C)O)NC(=O)[C@H]5CSC(=N5)/C(=C/C)NC(=O)[C@H]([C@@H](C)O)NC(=O)c5csc(n5)[C@]3(CC2)NC(=O)[C@H](C)NC(=O)C(=C)NC(=O)C(=C)NC(=O)[C@H](C(C)C)N[C@@H]2C=Cc3c([C@H](C)O)cc(nc3[C@H]2O)C(=O)O[C@@H]4C)n1)C(N)=O [Siomycin A] | decreased proteolytic activity of the 20S proteasome |  |  |  | FoxM1 transcriptional activity and FoxM1 protein expression, reported previously [1]: inhibited FoxM1 transcriptional activity as well as FoxM1 protein expression in cells; concentration required to induce apoptosis when used alone (BxPC3 cells): 5 µM; concentration required to induce apoptosis when used alone (MDAMB231 cells): 5 µM; concentration required to induce apoptosis when used alone (HPAC cells): 10 to 15 µM; concentration required to induce apoptosis when used alone (Mia Paca cells): 5 µM; cellular protein levels of Hdm2, p53, Mcl-1 and p21 [2]: increased the cellular protein levels of Hdm2, p53, Mcl-1 and p21; TNF-α-induced NF-κB transcriptional activity [3]: suppressed TNF-α-induced NF-κB transcriptional activity |
| CC(=O)N[C@@H](CSC(=O)[C@]1([C@@H](O)C(C)C)NC(=O)[C@H](C)[C@@H]1O)C(=O)O [lactacystin] | the decrease was not as prominent as that by MG132 or lactacystin |  |  |  |  |
| CC[C@H](C)[C@H](NC(=O)OCc1ccccc1)C(=O)N[C@@H](CCC(=O)OC(C)(C)C)C(=O)N[C@@H](C)C(=O)N[C@H](C=O)CC(C)C [PSI, N-benzyloxycarbony-Ile-Glu-(O-t-butyl)-Ala-leucinal] (Cbz-IE(OtBu)AL-aldehyde) |  | inhibited FoxM1 transcriptional activity |  |  |  |
| CC(C)C[C@@H](C=O)NC(=O)[C@H](CC(C)C)NC(=O)[C@H](CC(C)C)NC(=O)OCc1ccccc1 [MG132, Z-L-leucyl-L-leucyl-L-leucinal] (Cbz-Leu-Leu-Leu-aldehyde) | the decrease was not as prominent as that by MG132 or lactacystin | inhibited FoxM1 transcriptional activity | the levels of FoxM1 protein decreased | induced apoptosis in the cells |  |
| CC(C)C[C@H](NC(=O)[C@H](Cc1ccccc1)NC(=O)c1cnccn1)B(O)O [VELCADE®, pyrazylcarbony-phenylalanyl-leucyl-boronate] |  | inhibited FoxM1 transcriptional activity | the levels of FoxM1 protein decreased | induced apoptosis in the cells | minimal concentration required for induction of caspase 3 expression, compound alone [6]: 50 nM; active caspase 3 expression in cells over-expressing FoxM1 (U2OS-C3 cells): VELCADE®-induced active caspase 3 expression was reduced in cells that over-expressed FoxM1; therapeutic index [7]: very narrow therapeutic index |
| CCC[C@@H](C=O)NC(=O)[C@H](CC(C)C)NC(=O)[C@H](CC(C)C)NC(=O)OCc1ccccc1 [MG115, Z-L-leucyl-L-leucyl-L-norvalinal] (Cbz-Leu-Leu-[Nva]-aldehyde) |  | inhibited FoxM1 transcriptional activity | the levels of FoxM1 protein decreased | induced apoptosis in the cells |  |
| C=C(NC(=O)C(=C)NC(=O)c1csc(C2=N[C@@H]3c4csc(n4)[C@H]4NC(=O)c5csc(n5)[C@H]([C@](C)(O)[C@@H](C)O)NC(=O)[C@H]5CSC(=N5)/C(=C/C)NC(=O)[C@H]([C@@H](C)O)NC(=O)c5csc(n5)[C@]3(CC2)NC(=O)[C@H](C)NC(=O)C(=C)NC(=O)[C@H](C)NC(=O)[C@H]([C@@H](C)CC)N[C@@H]2C=Cc3c([C@H](C)O)cc(nc3[C@H]2O)C(=O)O[C@@H]4C)n1)C(N)=O [thiostrepton] | decreased proteolytic activity of the 20S proteasome |  |  |  | FoxM1 transcriptional activity and FoxM1 protein expression, reported previously [1]: inhibited FoxM1 transcriptional activity as well as FoxM1 protein expression in cells; minimal concentration required for induction of caspase 3 expression, compound alone [6]: 3000 nM; TNF-α-induced NF-κB transcriptional activity [3]: suppressed TNF-α-induced NF-κB transcriptional activity |
| COc1cccc2c1C(=O)c1c(O)c3c(c(O)c1C2=O)C[C@@](O)(C(=O)CO)C[C@@H]3O[C@H]1C[C@H](N)[C@H](O)[C@H](C)O1 [doxorubicin] |  |  |  |  | active caspase 3 expression in cells over-expressing FoxM1 (U2OS-C3 cells): over-expression of FoxM1 did not protect against doxorubicin-induced caspase 3 expression |
